Patent US6552080B1, “Fungicidal compounds having a fluorovinyl-or fluoropropenyl-oxyphenyloxime moiety and process for the preparation thereof” (Korea Research Institute of Chemical Technology, priority 1999, dated 2003)
Read-outs that look alike come from different tables or passages of the source.

Assays:
Phytophthora infestans = type: in vivo; settings: for TLB (Fungicidal Activities, C.V.): Tomato Late Blight
[1] = test system: Pyricularia oryzae Carvara KA301; type: in vivo; settings: for RCV (Fungicidal Activities, C.V.): Rice Blast
Botrytis cinerae = assay: Fungicidal activity against Cucumber Gray Mold Rot (CGM) disease; type: in vivo; settings: for CGM (Fungicidal Activities, C.V.): Cucumber Gray Mold Rot, concentration 50 ppm; for Fungicidal Activities CGM (C.V.): 50 ppm
Erysiphae graminis = assay: Fungicidal activity against Barley Powdery Mildew (BPM) disease; type: in vivo; settings: for BPM (Fungicidal Activities, C.V.): Barley Powdery Mildew
Rhizoctonia solani AG-1 = assay: Fungicidal activity against Rice Sheath Blight (RSB) disease; settings: for RSB (Fungicidal Activities, C.V.): Rice Sheath Blight
Puccinia recondita = assay: Fungicidal activity against Wheat Leaf Rust (WLR) disease; type: in vivo; settings: for WLR (Fungicidal Activities, C.V.): Wheat Leaf Rust

Row | Compound | TLB (Fungicidal Activities, C.V.) (Phytophthora infestans; concentration 50 ppm) [%] | RCV (Fungicidal Activities, C.V.) ([1]; concentration 2 ppm) [%] | RCV (Fungicidal Activities, C.V.) ([1]; concentration 50 ppm) [%] | CGM (Fungicidal Activities, C.V.) (Botrytis cinerae) [%] | BPM (Fungicidal Activities, C.V.) (Erysiphae graminis; concentration 2 ppm) [%] | BPM (Fungicidal Activities, C.V.) (Erysiphae graminis; concentration 50 ppm) [%] | RSB (Fungicidal Activities, C.V.) (Rhizoctonia solani AG-1; concentration 50 ppm) [%] | WLR (Fungicidal Activities, C.V.) (Puccinia recondita; concentration 2 ppm) [%] | WLR (Fungicidal Activities, C.V.) (Puccinia recondita; concentration 50 ppm) [%] | RCV (Fungicidal Activities, C.V.) ([1]; concentration 10 ppm) [%] | BPM (Fungicidal Activities, C.V.) (Erysiphae graminis; concentration 10 ppm) [%] | WLR (Fungicidal Activities, C.V.) (Puccinia recondita; concentration 10 ppm) [%] | Fungicidal Activities RCV (C.V.) ([1]; 2 ppm) [%] | Fungicidal Activities BPM (C.V.) (Erysiphae graminis; 2 ppm) [%] | Fungicidal Activities WLR (C.V.) (Puccinia recondita; 2 ppm) [%] | also measured
1 | CON=C(C(=O)OC)c1ccccc1CON=C(C)c1cccc(OC(F)=Cc2ccc(F)cc2)c1 [Compound 74] | 56 | 100 | 100 | 72 | 100 | 100 | 100 | 99 | 100 | – | – | – | – | – | – | TLB (Fungicidal Activities, C.V.) (Phytophthora infestans; concentration 2 ppm): 12%; RSB (Fungicidal Activities, C.V.) (Rhizoctonia solani AG-1; concentration 2 ppm): 25%
2 | CON=C(C(=O)OC)c1ccccc1CON=C(C)c1cccc(OC(F)=Cc2ccc(C)c(C)c2)c1 [Compound 67] | 0 | 100 | 100 | 37 | 99 | 100 | 100 | 99 | 100 | 100 | 100 | 100 | – | – | – | RSB (Fungicidal Activities, C.V.) (Rhizoctonia solani AG-1; concentration 2 ppm): 10%; RSB (Fungicidal Activities, C.V.) (Rhizoctonia solani AG-1; concentration 10 ppm): 43%
3 | CNC(=O)C(=NOC)c1ccccc1CON=Cc1cccc(OC(F)=C(c2cccc(C)c2)C(F)(F)F)c1 [Compound 140] | 0 | 86 | 97 | 0 | – | 86 | 64 | 0 | 100 | – | – | – | – | – | – | –
4 | CON=C(C(=O)OC)c1ccccc1CON=C(C)c1cccc(OC(F)=C(c2ccc(C)c(C)c2)C(F)(F)F)c1 [Compound 176] | – | – | – | – | – | – | – | – | – | – | – | – | 83 | 80 | 60 | Fungicidal Activities TLB (C.V.) (Phytophthora infestans; 50 ppm): 70%; Fungicidal Activities RCV (C.V.) ([1]; 50 ppm): 86%; Fungicidal Activities CGM (C.V.) (Botrytis cinerae): 12%; Fungicidal Activities BPM (C.V.) (Erysiphae graminis; 50 ppm): 100%; Fungicidal Activities RSB (C.V.) (Rhizoctonia solani AG-1; 2 ppm): 20%; Fungicidal Activities RSB (C.V.) (Rhizoctonia solani AG-1; 50 ppm): 60%; Fungicidal Activities WLR (C.V.) (Puccinia recondita; 50 ppm): 100%
5 | COC=C(C(=O)OC)c1ccccc1CON=C(C)c1cccc(OC(F)=C(c2ccc(F)cc2)C(F)(F)F)c1 [Compound 160] | 92 | – | 100 | 36 | – | 100 | 70 | – | 100 | 100 | 100 | 100 | 86 | 99 | 99 | –
6 | CON=C(C(=O)OC)c1ccccc1CON=C(C)c1cccc(OC(F)=C(c2cccc(F)c2)C(F)(F)F)c1 [Compound 182] | – | – | – | – | – | – | – | – | – | – | – | – | 95 | 96 | 95 | Fungicidal Activities TLB (C.V.) (Phytophthora infestans; 2 ppm): 62%; Fungicidal Activities TLB (C.V.) (Phytophthora infestans; 50 ppm): 40%; Fungicidal Activities RCV (C.V.) ([1]; 50 ppm): 95%; Fungicidal Activities CGM (C.V.) (Botrytis cinerae): 77%; Fungicidal Activities BPM (C.V.) (Erysiphae graminis; 50 ppm): 100%; Fungicidal Activities RSB (C.V.) (Rhizoctonia solani AG-1; 2 ppm): 30%; Fungicidal Activities RSB (C.V.) (Rhizoctonia solani AG-1; 50 ppm): 50%; Fungicidal Activities WLR (C.V.) (Puccinia recondita; 50 ppm): 100%
7 | CNC(=O)C(=NOC)c1ccccc1CON=C(C)c1cccc(OC(F)=C(c2ccc(C)cc2)C(F)(F)F)c1 [Compound 192] | – | – | – | – | – | – | – | – | – | – | – | – | 100 | 100 | 98 | Fungicidal Activities TLB (C.V.) (Phytophthora infestans; 2 ppm): 37%; Fungicidal Activities TLB (C.V.) (Phytophthora infestans; 50 ppm): 40%; Fungicidal Activities RCV (C.V.) ([1]; 50 ppm): 100%; Fungicidal Activities CGM (C.V.) (Botrytis cinerae): 75%; Fungicidal Activities BPM (C.V.) (Erysiphae graminis; 50 ppm): 100%; Fungicidal Activities RSB (C.V.) (Rhizoctonia solani AG-1; 2 ppm): 40%; Fungicidal Activities RSB (C.V.) (Rhizoctonia solani AG-1; 50 ppm): 100%; Fungicidal Activities WLR (C.V.) (Puccinia recondita; 50 ppm): 100%
8 | CNC(=O)C(=NOC)c1ccccc1CON=C(C)c1cccc(OC(F)=C(c2cccc(C(F)(F)F)c2)C(F)(F)F)c1 [Compound 200] | – | – | – | – | – | – | – | – | – | – | – | – | 95 | 99 | 93 | Fungicidal Activities TLB (C.V.) (Phytophthora infestans; 2 ppm): 12%; Fungicidal Activities TLB (C.V.) (Phytophthora infestans; 50 ppm): 50%; Fungicidal Activities RCV (C.V.) ([1]; 50 ppm): 96%; Fungicidal Activities CGM (C.V.) (Botrytis cinerae): 81%; Fungicidal Activities BPM (C.V.) (Erysiphae graminis; 50 ppm): 100%; Fungicidal Activities RSB (C.V.) (Rhizoctonia solani AG-1; 2 ppm): 15%; Fungicidal Activities RSB (C.V.) (Rhizoctonia solani AG-1; 50 ppm): 85%; Fungicidal Activities WLR (C.V.) (Puccinia recondita; 50 ppm): 100%
9 | COC=C(C(=O)OC)c1ccccc1CON=C(C)c1cccc(OC(F)=C(c2ccc(Cl)cc2)C(F)(F)F)c1 [Compound 163] | – | – | – | – | – | – | – | – | – | – | – | – | 58 | 94 | 86 | Fungicidal Activities TLB (C.V.) (Phytophthora infestans; 50 ppm): 12%; Fungicidal Activities RCV (C.V.) ([1]; 10 ppm): 86%; Fungicidal Activities RCV (C.V.) ([1]; 50 ppm): 90%; Fungicidal Activities CGM (C.V.) (Botrytis cinerae): 51%; Fungicidal Activities BPM (C.V.) (Erysiphae graminis; 10 ppm): 100%; Fungicidal Activities BPM (C.V.) (Erysiphae graminis; 50 ppm): 100%; Fungicidal Activities RSB (C.V.) (Rhizoctonia solani AG-1; 2 ppm): 40%; Fungicidal Activities RSB (C.V.) (Rhizoctonia solani AG-1; 10 ppm): 40%; Fungicidal Activities RSB (C.V.) (Rhizoctonia solani AG-1; 50 ppm): 92%; Fungicidal Activities WLR (C.V.) (Puccinia recondita; 10 ppm): 98%; Fungicidal Activities WLR (C.V.) (Puccinia recondita; 50 ppm): 100%
10 | CO/N=C(/C(=O)OC)c1ccccc1CON=C(C)c1cccc(OC(F)=Cc2ccccc2)c1 [Compound 64] | 95 | 100 | 100 | 75 | 100 | 100 | 85 | 99 | 100 | 100 | 100 | 100 | – | – | – | TLB (Fungicidal Activities, C.V.) (Phytophthora infestans; concentration 2 ppm): 87%; TLB (Fungicidal Activities, C.V.) (Phytophthora infestans; concentration 10 ppm): 90%; RSB (Fungicidal Activities, C.V.) (Rhizoctonia solani AG-1; concentration 2 ppm): 45%; RSB (Fungicidal Activities, C.V.) (Rhizoctonia solani AG-1; concentration 10 ppm): 65%
11 | COC=C(C(=O)OC)c1ccccc1CON=C(C)c1cccc(OC(F)=Cc2ccc(C)cc2)c1 [Compound 42] | 97 | 58 | 100 | 64 | 100 | 100 | 70 | 98 | 100 | 96 | 100 | 100 | – | – | – | –
12 | COC=C(C(=O)OC)c1ccccc1CON=C(C)c1cccc(OC(F)=C(c2ccc(C)c(C)c2)C(F)(F)F)c1 [Compound 153] | 13 | 0 | 86 | 20 | 83 | 100 | 55 | 91 | 100 | 25 | 99 | 100 | – | – | – | –
13 | CON=C(C(=O)OC)c1ccccc1CON=Cc1cccc(OC(F)=Cc2ccc(F)cc2)c1 [Compound 27] | 69 | – | 100 | 0 | – | 91 | 25 | – | 86 | – | – | – | – | – | – | –
14 | COC=C(C(=O)OC)c1ccccc1CON=Cc1cccc(OC(F)=Cc2cccc(Cl)c2)c1 [Compound 13] | 46 | 41 | 93 | 36 | 99 | 100 | 70 | 99 | 100 | 86 | 100 | 100 | – | – | – | –
15 | CON=C(C(=O)OC)c1ccccc1CON=Cc1cccc(OC(F)=Cc2ccc(C)cc2)c1 [Compound 25] | 99 | 66 | 98 | 9 | 93 | 100 | 40 | 95 | 100 | – | – | – | – | – | – | TLB (Fungicidal Activities, C.V.) (Phytophthora infestans; concentration 2 ppm): 75%; RSB (Fungicidal Activities, C.V.) (Rhizoctonia solani AG-1; concentration 2 ppm): 15%
16 | COC=C(C(=O)OC)c1ccccc1CON=C(c1cccc(OC(F)=Cc2ccc(OC)cc2)c1)C(F)(F)F [Compound 89] | 12 | – | 80 | 0 | – | 100 | 50 | – | 96 | – | 99 | 70 | – | – | – | –
17 | COC=C(C(=O)OC)c1ccccc1CON=Cc1cccc(OC(F)=C(c2ccc(F)cc2)C(F)(F)F)c1 [Compound 113] | 21 | – | 0 | 0 | 86 | 100 | 20 | 86 | 100 | – | 96 | 98 | – | – | – | –
